Reference: patent US20100184767A1, “SUBSTITUTED OXAZOLIDINONES AND USE THEREOF” (priority 2007, published 2010)
pIC50: −log10 of the molar value.

Molecular target: human factor Xa (FXa) (Homo sapiens, UniProt P00742)
Assay: Factor Xa inhibition, fluorogenic assay
Assay type: biochemical
Settings: fluorogenic substrate Boc-Ile-Glu-Gly-Arg-AMC, human FXa 1.3 nmol/l, pH 7.4, 22° C.
Description: The enzymatic activity of human factor Xa (FXa) is measured using the conversion of a fluorogenic substrate specific for FXa. FXa cleaves aminomethylcoumarin, whose fluorescence is measured, from the peptidic substrate. The determinations are carried out in microtitre plates.
Substances to be tested, in various concentrations, are dissolved in dimethyl sulphoxide and incubated for 15 min at 22° C. with human FXa (1.3 nmol/l dissolved in 50 mmol/l of Tris buffer [C,C,C-tris(hydroxymethyl)aminomethane], 100 mmol/l NaCl, 0.1% BSA [bovine serum albumin], pH 7.4). The fluorogenic substrate (5 μmol/l of Boc-Ile-Glu-Gly-Arg-AMC from Bachem) is then added. After an incubation time of 30 min, the sample is excited at a wavelength of 360 nm, and the emission at 460 nm is measured. The measured emissions of the test batches with test substance are compared to the control batches without test substance (only dimethyl sulphoxide instead of test substance in dimethyl sulphoxide), and IC50 values are calculated from the concentration/activity relationships.

human factor Xa (FXa), sequence (P00742 235-488 limits assumed): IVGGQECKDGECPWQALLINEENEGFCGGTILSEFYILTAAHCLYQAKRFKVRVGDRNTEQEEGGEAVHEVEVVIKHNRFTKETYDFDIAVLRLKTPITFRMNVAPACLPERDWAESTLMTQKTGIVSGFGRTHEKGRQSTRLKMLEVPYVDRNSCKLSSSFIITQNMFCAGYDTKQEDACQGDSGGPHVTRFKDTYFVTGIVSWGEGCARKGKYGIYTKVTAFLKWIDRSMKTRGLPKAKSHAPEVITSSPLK
human factor Xa (FXa), sequence (P00742 41-179 partner limits assumed): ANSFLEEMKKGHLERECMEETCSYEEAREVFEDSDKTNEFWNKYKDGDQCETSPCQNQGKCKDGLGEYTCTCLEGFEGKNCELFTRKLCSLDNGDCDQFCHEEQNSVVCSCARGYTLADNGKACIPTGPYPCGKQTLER

Row | SMILES | pIC50
1 | O=C(NC[C@H]1CN(c2ccc(N3CCOCC3=O)cc2F)C(=O)O1)c1ccc(Cl)s1 [Example 1, 5-Chloro-N-({(5S)-3-[2-fluoro-4-(3-oxomorpholin-4-yl)phenyl]-2-oxo-1,3-oxazolidin-5-yl}methyl)thiophene-2-carboxamide] | 9.05
2 | O=C(NC[C@H]1CN(c2ccc(N3CCCCC3=O)cc2F)C(=O)O1)c1ccc(Cl)s1 [Example 11, 5-Chloro-N-({(5S)-3-[2-fluoro-4-(2-oxopiperidin-1-yl)phenyl]-2-oxo-1,3-oxazolidin-5-yl}methyl)thiophene-2-carboxamide] | 8.66
3 | O=C(NC[C@H]1CN(c2ccc(N3CCOCC3=O)cc2Cl)C(=O)O1)c1ccc(Cl)s1 [Example 12, 5-Chloro-N-({(5S)-3-[2-chloro-4-(3-oxomorpholin-4-yl)phenyl]-2-oxo-1,3-oxazolidin-5-yl}methyl)thiophene-2-carboxamide] | 8.74
4 | O=C(NC[C@H]1CN(c2ccc(-n3cccc(CO)c3=O)cc2F)C(=O)O1)c1ccc(Cl)s1 [Example 22, 5-Chloro-N-{[(5S)-3-{2-fluoro-4-[3-(hydroxymethyl)-2-oxopyridin-1(2H)-yl]phenyl}-2-oxo-1,3-oxazolidin-5-yl]methyl}thiophene-2-carboxamide] | 9.05
